For data set [1] the following is noted: in vivo.
Data set [2] in a line: plasma level upon oral dosing (AUC-PO). The conditions noted are these: plasma AUC normalised to dose.

Where two headings read alike, the source gives them in different places.

From patent US20050004200A1, “Pyrazole compounds as integrin receptor antagonists derivatives” (Pharmacia Corporation, priority 2002, published 2005) come the findings set out here.

Regarding “3-(1,3-benzodioxol-5-yl)-4-[5-[2-(1-methyl-1,2,3,4-tetrahydropyrido[2,3-b]pyrazin-6-yl)ethoxy]-1-(2,2,2-trifluoroethyl)-1H-pyrazol-3-yl]butanoic acid [Example 27]”, the “Rat AUC-PO/dose” value in data set [1] came to 2 µg·h/mL/mg/kg. As to `Cn1nc(CC(CC(=O)O)c2ccc3c(c2)OCO3)cc1OCCc1ccc2c(n1)NCCC2` (centres unmarked) [Example 1, 3-(1,3-benzodioxol-5-yl)-4-{1-methyl-5-[2-(5,6,7,8-tetrahydro-1,8-naphthyridin-2-yl)ethoxy]-1H-pyrazol-3-yl}butanoic acid], in data set [2], the “Rat AUC-PO/dose” value worked out at 0.9 µg·h/mL/mg/kg.

Consider `Cn1nc(CC(CC(=O)O)c2cnc(-c3ccc(Cl)cc3)s2)cc1OCCc1ccc2c(n1)NCCC2` (centres unmarked) [Example 2, 3-[2-(4-chlorophenyl)-1,3-thiazol-5-yl]-4-{1-methyl-5-[2-(5,6,7,8-tetrahydro-1,8-naphthyridin-2-yl)ethoxy]-1H-pyrazol-3-yl}butanoic acid], for which the “Rat AUC-PO/dose” value in data set [2] was 1 µg·h/mL/mg/kg. On the same count and under the same terms, the value for `Cn1nc(CC(CC(=O)O)c2ccc3c(c2)OCO3)cc1SCCc1ccc2c(n1)NCCC2` (centres unmarked) [Example 3, 3-(1,3-benzodioxol-5-yl)-4-(1-methyl-5-{[2-(5,6,7,8-tetrahydro-1,8-naphthyridin-2-yl)ethyl]thio}-1H-pyrazol-3-yl)butanoic acid] was 2.2 µg·h/mL/mg/kg; that for `Cn1nc(CC(CC(=O)O)c2ccc3c(c2)OCO3)cc1S(=O)(=O)CCc1ccc2c(n1)NCCC2` (centres unmarked) [Example 4, 3-(1,3-benzodioxol-5-yl)-4-(1-methyl-5-{[2-(5,6,7,8-tetrahydro-1,8-naphthyridin-2-yl)ethyl]sulfonyl}-1H-pyrazol-3-yl)butanoic acid] was 0.7 µg·h/mL/mg/kg; that for `Cl.Cn1nc(CC(CC(=O)O)c2cnc(C3CC3)s2)cc1OCCc1ccc2c(n1)NCCC2` (centres unmarked) [Example 6, 3-(2-cyclopropyl-1,3-thiazol-5-yl)-4-{1-methyl-5-[2-(5,6,7,8-tetrahydro-1,8-naphthyridin-2-yl)ethoxy]-1H-pyrazol-3-yl}butanoic acid] was 1.1 µg·h/mL/mg/kg. On the same count and under the same terms, in the case of `COc1ccc(C(CC(=O)O)Cc2cc(OCCc3ccc4c(n3)NCCN4C)n(C)n2)cn1` (centres unmarked) [Example 7, 3-(6-methoxypyridin-3-yl)-4-{1-methyl-5-[2-(1-methyl-1,2,3,4-tetrahydropyrido[2,3-b]pyrazin-6-yl)ethoxy]-1H-pyrazol-3-yl}butanoic acid] it was 0.8 µg·h/mL/mg/kg. The same measure, in the same setting: in the case of `CNc1cccc(CCOc2cc(CC(CC(=O)O)c3ccc4c(c3)OCO4)nn2C)n1` (centres unmarked) [Example 8, 3-(1,3-benzodioxol-5-yl)-4-(1-methyl-5-{2-[6-(methylamino)pyridin-2-yl]ethoxy}-1H-pyrazol-3-yl)butanoic acid] it was 0.7 µg·h/mL/mg/kg.

With `O=C(O)CC(Cc1cc(OCCc2ccc3c(n2)NCCC3)n(-c2ccccc2)n1)c1ccc2c(c1)OCO2` (centres unmarked) [Example 21, 3-(1,3-benzodioxol-5-yl)-4-{1-phenyl-5-[2-(5,6,7,8-tetrahydro-1,8-naphthyridin-2-yl)ethoxy]-1H-pyrazol-3-yl}butanoic acid], the “Rat AUC-PO/dose” value in data set [2] was found to be 1.7 µg·h/mL/mg/kg. For `COc1ccc(C(CC(=O)O)Cc2cc(OCCc3ccc4c(n3)NCCC4)n(CC(F)(F)F)n2)cn1` (centres unmarked) [Example 23, 3-(6-methoxypyridin-3-yl)-4-[5-[2-(5,6,7,8-tetrahydro-1,8-naphthyridin-2-yl)ethoxy]-1-(2,2,2-trifluoroethyl)-1H-pyrazol-3-yl]butanoic acid], the “Rat AUC-PO/dose” value in data set [2] worked out at 0.8 µg·h/mL/mg/kg. On the same count and under the same terms, the value for `Cn1nc(CC(CC(=O)O)c2ccc3c(c2)OCO3)cc1OCCc1ccc2c(n1)NCCN2` (centres unmarked) [Example 25, 3-(1,3-benzodioxol-5-yl)-4-{1-methyl-5-[2-(1,2,3,4-tetrahydropyrido[2,3-b]pyrazin-6-yl)ethoxy]-1H-pyrazol-3-yl}butanoic acid] was 0.4 µg·h/mL/mg/kg. On to `O=C(O)CC(Cc1cc(OCCc2ccc3c(n2)NCCN3)n(CC(F)(F)F)n1)c1ccc2c(c1)OCO2` (centres unmarked) [Example 26, 3-(1,3-benzodioxol-5-yl)-4-[5-[2-(1,2,3,4-tetrahydropyrido[2,3-b]pyrazin-6-yl)ethoxy]-1-(2,2,2-trifluoroethyl)-1H-pyrazol-3-yl]butanoic acid], for which, in data set [2], the “Rat AUC-PO/dose” value stood at 0.9 µg·h/mL/mg/kg. `CN1CCNc2nc(CCOc3cc(CC(CC(=O)O)c4ccc5c(c4)OCO5)nn3C)ccc21` (centres unmarked) [Example 31, 3-(1,3-benzodioxol-5-yl)-4-{1-methyl-5-[2-(1-methyl-1,2,3,4-tetrahydropyrido[2,3-b]pyrazin-6-yl)ethoxy]-1H-pyrazol-3-yl}butanoic acid]: the “Rat AUC-PO/dose” value in data set [2] is 1.9 µg·h/mL/mg/kg.

Regarding `Cc1cc(CCOc2cc(CC(CC(=O)O)c3ccc4c(c3)OCO4)nn2C)nc2c1CCCN2` (centres unmarked) [Example 32, 3-(1,3-Benzodioxol-5-yl)-4-{1-methyl-5-[2-(4-methyl-5,6,7,8-tetrahydro-1,8-naphthyridin-2-yl)ethoxy]-1H-pyrazol-3-yl}butanoic acid], the “Rat AUC-PO/dose” value in data set [2] was determined as 2.2 µg·h/mL/mg/kg.
